Patent US20210355104A1, “ADENOSINE RECEPTOR BINDING COMPOUNDS” (Nikang Therapeuticsm Inc., priority 2018, published 2021)
Where “and” joins values, the source holds several entries; their conditions need not be identical. Identical values can stand only once.

Assays:
Adenosine A2A receptor [1] = target: T1, Adenosine A2A receptor (Homo sapiens, UniProt P29274); assay: cAMP assay in 293A cells stably expressing the adenosine A2A receptor (CGS21680 stimulation, HTRF); format: cell-based; design: expressed in transfected cells; host or cells: 293A cells (Invitrogen, Cat# R705-07) infected with A2A-expressing lentivirus (custom packaged by Biosettia), puromycin selected; conditions: 293A-A2AR cells, 0.1% BSA
Adenosine A2A receptor [2] = target: T1, Adenosine A2A receptor; assay: Adenosine A2A receptor competitive binding assay (Tag-lite HTRF); conditions: Tag-lite adenosine A2A receptor ligand binding
In short: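 Compound displacement of a red fluorescent antagonist tracer (added at 60 nM stock) from donor-labelled, pre-transfected human A2A cells was read by HTRF after 2 h at room temperature; compound dilutions contained 0.6% DMSO.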

[3] = 8 nM CGS, values separated by / are repeat determinations, read-out: cAMP (nM) 0.1% BSA, 8 nM CGS
[4] = 2 h room temperature, values separated by / are repeat determinations
[5] = 1 uM CGS, read-out: cAMP (nM) 0.1% BSA, 1 uM CGS
[6] = 1 uM CGS, values separated by / are repeat determinations, read-out: cAMP (nM) 0.1% BSA, 1 uM CGS
[7] = 8 nM CGS, read-out: cAMP (nM) 0.1% BSA, 8 nM CGS

T1 sequence (P29274 whole entry): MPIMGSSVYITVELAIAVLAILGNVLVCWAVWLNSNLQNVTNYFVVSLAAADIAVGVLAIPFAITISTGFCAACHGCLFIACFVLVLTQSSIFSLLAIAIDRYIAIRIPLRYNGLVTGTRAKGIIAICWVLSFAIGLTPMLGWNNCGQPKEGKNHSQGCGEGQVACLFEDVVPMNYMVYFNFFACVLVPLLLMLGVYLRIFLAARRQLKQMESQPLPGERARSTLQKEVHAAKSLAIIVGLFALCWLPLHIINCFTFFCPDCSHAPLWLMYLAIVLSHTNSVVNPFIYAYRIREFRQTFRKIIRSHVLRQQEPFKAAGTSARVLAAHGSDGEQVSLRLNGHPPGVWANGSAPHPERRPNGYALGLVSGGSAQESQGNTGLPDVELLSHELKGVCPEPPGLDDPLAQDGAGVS

Compound	IC50 (Adenosine A2A receptor [1]; [3])	IC50 (Adenosine A2A receptor [2]; [4])	IC50 (Adenosine A2A receptor [1]; [5]) [nM]	IC50 (Adenosine A2A receptor [2]; HTRF) [nM]	IC50 (Adenosine A2A receptor [1]; [6])	IC50 (Adenosine A2A receptor [1]; [7])
Cc1cc(-c2c(OCC(O)CCO)nc(N)nc2-c2ccc(F)cc2)cc(C(F)F)n1 (centres unmarked) [Example 81, 4-((2-amino-5-(2-(difluoromethyl)-6-methylpyridin-4-yl)-6-(4-fluorophenyl)pyrimidin-4-yl)oxy)butane-1,3-diol]	21 nM and 5.9 nM and 8.4 nM	5.6 nM	–	–	–	–
Cc1cc(-c2c(OCc3ccn(CC4CC4)n3)nc(N)nc2-c2ccc(F)cc2)cc(C(F)F)n1 [Example 214]	–	–	327	4.5	–	–
CCN(CCO)C(=O)COc1nc(N)nc(-c2ccc(F)cc2)c1-c1cc(C)nc(C(F)F)c1 [Example 89, 2-((2-amino-5-(2-(difluoromethyl)-6-methylpyridin-4-yl)-6-(4-fluorophenyl)pyrimidin-4-yl)oxy)-N-ethyl-N-(2-hydroxyethyl)acetamide]	2.2 nM	6.1 nM	–	–	–	–
Cc1cc(-c2c(OCc3nccn3C3COC3)nc(N)nc2-c2ccc(F)cc2)cc(C(F)F)n1 [Example 171, 5-(2-(difluoromethyl)-6-methylpyridin-4-yl)-4-(4-fluorophenyl)-6-((1-(oxetan-3-yl)-1H-imidazol-2-yl)methoxy)pyrimidin-2-amine]	4.1 nM	3.6 nM	–	–	–	–
Cc1cc(-c2c(OCCNc3ccccc3)nc(N)nc2-c2ccc(F)cc2)cc(C(F)F)n1 [Example 82, 5-(2-(difluoromethyl)-6-methylpyridin-4-yl)-4-(4-fluorophenyl)-6-(2-(phenylamino)ethoxy)pyrimidin-2-amine]	1.6 nM	16 nM	–	–	936 nM	–
CCN(CC)C(=O)COc1nc(N)nc(-c2ccccc2)c1-c1cc(C)nc(C(C)(F)F)c1 [Example 16, 2-((2-amino-5-(2-(1,1-difluoroethyl)-6-methylpyridin-4-yl)-6-phenylpyrimidin-4-yl)oxy)-N,N-diethylacetamide]	6.5 nM	1.47 nM	–	–	–	–
Cc1cc(-c2c(OCC(C)(C)O)nc(N)nc2-c2ccc(F)cc2)cc(C(F)F)n1 [Example 62, 1-((2-amino-5-(2-(difluoromethyl)-6-methylpyridin-4-yl)-6-(4-fluorophenyl)pyrimidin-4-yl)oxy)-2-methylpropan-2-ol]	15 nM	15 nM	–	–	–	–
Cc1cc(-c2c(OCCCS(C)(=O)=O)nc(N)nc2-c2ccc(F)cc2)cc(C(F)F)n1 [Example 46, 5-(2-(difluoromethyl)-6-methylpyridin-4-yl)-4-(4-fluorophenyl)-6-(3-(methylsulfonyl)propoxy)pyrimidin-2-amine]	0.45 nM and 0.84 nM and 2.1 nM	5.7 nM and 5.9 nM	–	–	1780 nM and 714 nM	–
Cc1cc(-c2c(OCc3nc(C)n[nH]3)nc(N)nc2-c2ccc(F)cc2)cc(C(F)F)n1 [Example 97, 5-(2-(difluoromethyl)-6-methylpyridin-4-yl)-4-(4-fluorophenyl)-6-((3-methyl-1H-1,2,4-triazol-5-yl)methoxy)pyrimidin-2-amine]	4.5 nM	14 nM	–	–	3310 nM	–
CCN(CC)C(=O)COc1nc(N)nc(-c2ccc(C)o2)c1-c1cc(C)nc(C(F)(F)F)c1 [Example 12, 2-((2-amino-5-(2-methyl-6-(trifluoromethyl)pyridin-4-yl)-6-(5-methylfuran-2-yl)pyrimidin-4-yl)oxy)-N,N-diethylacetamide]	2 nM	13.8 nM	–	–	–	–
Cc1cc(-c2c(OC[C@@H](C)O)nc(N)nc2-c2ccc(F)cc2)cc(C(F)F)n1 [Example 74, (R)-1-((2-amino-5-(2-(difluoromethyl)-6-methylpyridin-4-yl)-6-(4-fluorophenyl)pyrimidin-4-yl)oxy)propan-2-ol]	–	8.4 nM and 15.7 nM	–	–	693 nM	–
CNC(=O)OCCOc1nc(N)nc(-c2ccc(F)cc2)c1-c1cc(C)nc(C(F)F)c1 [Example 143, 2-((2-amino-5-(2-(difluoromethyl)-6-methylpyridin-4-yl)-6-(4-fluorophenyl)pyrimidin-4-yl)oxy)ethyl methylcarbamate]	8.1 nM	11.7 nM	–	–	–	–
Cc1cc(-c2c(OCCc3ccc(OC4CCN(S(C)(=O)=O)C4)cc3)nc(N)nc2-c2ccc(F)cc2)cc(C(F)F)n1 (centres unmarked) [Example 66, 5-(2-(difluoromethyl)-6-methylpyridin-4-yl)-4-(4-fluorophenyl)-6-(4-((1-(methylsulfonyl)pyrrolidin-3-yl)oxy)phenethoxy)pyrimidin-2-amine]	337 nM	95 nM	–	–	–	–
CCN(CC)C(=O)[C@H](C)Oc1nc(N)nc(-c2ccccc2)c1-c1cc(C)nc(C(F)(F)F)c1 [Example 14, (S)-2-((2-amino-5-(2-methyl-6-(trifluoromethyl)pyridin-4-yl)-6-phenylpyrimidin-4-yl)oxy)-N,N-diethylpropanamide]	10000 nM	900 nM	–	–	–	–
COC(=O)NCC1(COc2nc(N)nc(-c3ccc(F)cc3)c2-c2cc(C)nc(C(F)F)c2)CCOCC1 [Example 158, methyl ((4-(((2-amino-5-(2-(difluoromethyl)-6-methylpyridin-4-yl)-6-(4-fluorophenyl)pyrimidin-4-yl)oxy)methyl)tetrahydro-2H-pyran-4-yl)methyl)carbamate]	231 nM	627 nM	–	–	–	–
CCc1nnn(CC)c1COc1nc(N)nc(-c2ccc(F)cc2)c1-c1cc(C)nc(C(F)F)c1 [Example 202, 4-((1,4-diethyl-1H-1,2,3-triazol-5-yl)methoxy)-5-(2-(difluoromethyl)-6-methylpyridin-4-yl)-6-(4-fluorophenyl)pyrimidin-2-amine]	–	–	–	3.5	–	16 nM
CNC(=O)COc1nc(N)nc(-c2ccccc2)c1-c1cc(C)nc(C(F)(F)F)c1 [Example 1, 2-((2-amino-5-(2-methyl-6-(trifluoromethyl)pyridin-4-yl)-6-phenylpyrimidin-4-yl)oxy)-N-methylacetamide]	40 nM and 17 nM	11.1 nM	–	–	4040 nM	–
Cc1cc(-c2c(OCc3nccn3CC(C)C(=O)O)nc(N)nc2-c2ccc(F)cc2)cc(C(F)F)n1 (centres unmarked) [Example 207, 3-(2-(((2-amino-5-(2-(difluoromethyl)-6-methylpyridin-4-yl)-6-(4-fluorophenyl)pyrimidin-4-yl)oxy)methyl)-1H-imidazol-1-yl)-2-methylpropanoic acid]	–	–	–	28	–	29 nM
Cc1cc(-c2c(OCCN(C)c3ccc(S(C)(=O)=O)cn3)nc(N)nc2-c2ccc(F)cc2)cc(C(F)F)n1 [Example 157, 5-(2-(difluoromethyl)-6-methylpyridin-4-yl)-4-(4-fluorophenyl)-6-(2-(methyl(5-(methylsulfonyl)pyridin-2-yl)amino)ethoxy)pyrimidin-2-amine]	52 nM	79 nM	–	–	–	–
Cc1cc(-c2c(OCc3cn(C(C)C)nn3)nc(N)nc2-c2ccc(F)cc2)cc(C(F)F)n1 [Example 208, 5-(2-(difluoromethyl)-6-methylpyridin-4-yl)-4-(4-fluorophenyl)-6-((1-isopropyl-1H-1,2,3-triazol-4-yl)methoxy)pyrimidin-2-amine]	–	–	394	3.4	–	1.4 nM and 1 nM
Cc1cc(-c2c(OCc3n[nH]cc3C(C)C)nc(N)nc2-c2ccc(F)cc2)cc(C(F)F)n1 [Example 183, 5-(2-(difluoromethyl)-6-methylpyridin-4-yl)-4-(4-fluorophenyl)-6-((4-isopropyl-1H-pyrazol-3-yl)methoxy)pyrimidin-2-amine]	12 nM	46 nM	–	–	–	–
Cc1cc(-c2c(OCCc3ccc(N4CCN(C)CC4)cc3)nc(N)nc2-c2ccc(F)cc2)cc(C(F)F)n1 [Example 57, 5-(2-(difluoromethyl)-6-methylpyridin-4-yl)-4-(4-fluorophenyl)-6-(4-(4-methylpiperazin-1-yl)phenethoxy)pyrimidin-2-amine]	1.7 nM	2 nM and 14 nM	–	–	–	–
CCN(CC)C(=O)[C@@H](C)Oc1nc(N)nc(-c2ccccc2)c1-c1cc(C)nc(C(F)(F)F)c1 [Example 13, (R)-2-((2-amino-5-(2-methyl-6-(trifluoromethyl)pyridin-4-yl)-6-phenylpyrimidin-4-yl)oxy)-N,N-diethylpropanamide]	161 nM	303 nM	–	–	–	–
Cc1cc(-c2c(OCC(=O)N3CCOCC3)nc(N)nc2-c2ccccc2)cc(C(F)(F)F)n1 [Example 10, 2-((2-amino-5-(2-methyl-6-(trifluoromethyl)pyridin-4-yl)-6-phenylpyrimidin-4-yl)oxy)-1-morpholinoethan-1-one]	8.8 nM and 51.5 nM and 24.2 nM	25.2 nM	–	–	–	–
Cc1cc(-c2c(OCCC(C)(C)C(=O)O)nc(N)nc2-c2ccc(F)cc2)cc(C(F)F)n1 [Example 70, 4-((2-amino-5-(2-(difluoromethyl)-6-methylpyridin-4-yl)-6-(4-fluorophenyl)pyrimidin-4-yl)oxy)-2,2-dimethylbutanoic acid]	–	3.6 nM and 1 nM and 4 nM	–	–	513 nM and 315 nM and 231 nM and 229 nM and 143 nM	–
Cc1cc(-c2c(OCCCS(C)(=N)=O)nc(N)nc2-c2ccc(F)cc2)cc(C(F)F)n1 (centres unmarked) [Example 169, (3-((2-amino-5-(2-(difluoromethyl)-6-methylpyridin-4-yl)-6-(4-fluorophenyl)pyrimidin-4-yl)oxy)propyl)(imino)(methyl)-λ^6-sulfanone]	7.1 nM	9.7 nM	–	–	–	–
CCNC(=O)N(CC)CCOc1nc(N)nc(-c2ccc(F)cc2)c1-c1cc(C)nc(C(F)F)c1 [Example 123, 1-(2-((2-amino-5-(2-(difluoromethyl)-6-methylpyridin-4-yl)-6-(4-fluorophenyl)pyrimidin-4-yl)oxy)ethyl)-1,3-diethylurea]	0.87 nM and 0.67 nM	1.2 nM	–	–	–	–
